Test results from patent publication US20240343733A1, “COMPOUNDS FOR TARGETING DEGRADATION OF IRAK4 PROTEINS” (BIOGEN MA INC., priority 2021, published 2024).

target: T1, IRAK4 (Homo sapiens, UniProt Q9NWZ3); assay: IRAK4 Degradation Assay, HiBiT Method; format: cell-based; details: 293T cells expressing HiBiT-tagged IRAK4, 6 hours
T1 construct: 293Tcells expressing HiBiT-tagged IRAK4 were then added into 384-well plates
T1 sequence (Q9NWZ3 1-460): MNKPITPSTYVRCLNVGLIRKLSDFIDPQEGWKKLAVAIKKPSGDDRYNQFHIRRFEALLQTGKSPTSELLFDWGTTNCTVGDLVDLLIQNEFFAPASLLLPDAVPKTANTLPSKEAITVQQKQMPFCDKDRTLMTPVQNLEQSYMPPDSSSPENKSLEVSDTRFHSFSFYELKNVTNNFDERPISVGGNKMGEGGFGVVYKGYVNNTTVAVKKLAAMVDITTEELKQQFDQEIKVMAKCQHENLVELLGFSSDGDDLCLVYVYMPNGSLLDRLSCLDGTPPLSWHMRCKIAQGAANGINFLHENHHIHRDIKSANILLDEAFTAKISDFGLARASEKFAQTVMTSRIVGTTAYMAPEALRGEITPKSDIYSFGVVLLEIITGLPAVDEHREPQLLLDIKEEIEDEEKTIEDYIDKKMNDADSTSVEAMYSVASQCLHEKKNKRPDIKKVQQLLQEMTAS
Outline: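 Luminescent read-out with Nano-Glo HiBiT lytic reagent after 6 h compound exposure at 37 °C. Cells were HiBiT-IRAK4 knock-in 293T (C-terminal tag), 10,000 per well. Compounds ran as 11-point half-log dilutions from […] highest dose, duplicate wells; DMSO served as negative control.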

SMILES	DC50 [nM]
CC(C)Oc1cc2nn([C@H]3CC[C@H](CN4CCC(c5ccc6c(N7CCC(=O)NC7=O)nn(C)c6c5)CC4)CC3)cc2cc1C(=O)Nc1cccn([C@H]2C[C@H]2F)c1=O [Example 144, 2-((1r,4S)-4-((4-(3-(2,4-dioxotetrahydropyrimidin-1(2H)-yl)-1-methyl-1H-indazol-6-yl)piperidin-1-yl)methyl)cyclohexyl)-N-(1-((1S,2R)-2-fluorocyclopropyl)-2-oxo-1,2-dihydropyridin-3-yl)-6-isopropoxy-2H-indazole-5-carboxamide]	< 10
CC(C)Oc1cc2nn([C@H]3CC[C@H](CN4CCN(c5ccc6c(N7CCC(=O)NC7=O)cnn6c5)CC4)CC3)cc2cc1C(=O)Nc1cccn([C@H]2C[C@H]2F)c1=O [Example 145, 2-((1r,4S)-4-((4-(3-(2,4-dioxotetrahydropyrimidin-1(2H)-yl)pyrazolo[1,5-a]pyridin-6-yl)piperazin-1-yl)methyl)cyclohexyl)-N-(1-((1S,2R)-2-fluorocyclopropyl)-2-oxo-1,2-dihydropyridin-3-yl)-6-isopropoxy-2H-indazole-5-carboxamide]	< 10
CC(C)Oc1cc2nn([C@H]3CC[C@H](CN4CCN(c5ccn6c(N7CCC(=O)NC7=O)cnc6c5)CC4)CC3)cc2cc1C(=O)Nc1cccn([C@H]2C[C@H]2F)c1=O [Example 146, 2-((1r,4S)-4-((4-(3-(2,4-dioxotetrahydropyrimidin-1(2H)-yl)imidazo[1,2-a]pyridin-7-yl)piperazin-1-yl)methyl)cyclohexyl)-N-(1-((1S,2R)-2-fluorocyclopropyl)-2-oxo-1,2-dihydropyridin-3-yl)-6-isopropoxy-2H-indazole-5-carboxamide]	< 10
CC(C)Oc1cc2nn(C3CCN(C(=O)CC4CCN(c5ncc(C6CCC(=O)NC6=O)cc5F)CC4)CC3)cc2cc1C(=O)Nc1cnn2cccnc12 (stereo not drawn) [Example 148, 2-(1-(2-(1-(5-(2,6-dioxopiperidin-3-yl)-3-fluoropyridin-2-yl)piperidin-4-yl)acetyl)piperidin-4-yl)-6-isopropoxy-N-(pyrazolo[1,5-a]pyrimidin-3-yl)-2H-indazole-5-carboxamide]	10 to 100
CC(C)Oc1cc2nn(C3CCN(C(=O)CC4CCN(c5ccc(C6CCC(=O)NC6=O)cn5)CC4)CC3)cc2cc1C(=O)Nc1cccn([C@H]2C[C@H]2F)c1=O (stereo partly drawn) [Example 149, 2-(1-(2-(1-(5-(2,6-dioxopiperidin-3-yl)pyridin-2-yl)piperidin-4-yl)acetyl)piperidin-4-yl)-N-(1-((1S,2R)-2-fluorocyclopropyl)-2-oxo-1,2-dihydropyridin-3-yl)-6-isopropoxy-2H-indazole-5-carboxamide]	< 10
CC(C)Oc1cc2nn(C3CCN(C(=O)CC4CCN(c5ncc6c(n5)n(C)c(=O)n6C5CCC(=O)NC5=O)CC4)CC3)cc2cc1C(=O)Nc1cccn([C@H]2C[C@H]2F)c1=O (stereo partly drawn) [Example 150, 2-(1-(2-(1-(7-(2,6-dioxopiperidin-3-yl)-9-methyl-8-oxo-8,9-dihydro-7H-purin-2-yl)piperidin-4-yl)acetyl)piperidin-4-yl)-N-(1-((1S,2R)-2-fluorocyclopropyl)-2-oxo-1,2-dihydropyridin-3-yl)-6-isopropoxy-2H-indazole-5-carboxamide]	< 10
CC(C)Oc1cc2nn(C3CCN(C(=O)CC4CCN(c5ncc(C6CCC(=O)NC6=O)cc5F)CC4)CC3)cc2cc1C(=O)Nc1cccn([C@H]2C[C@H]2F)c1=O (stereo partly drawn) [Example 151, 2-(1-(2-(1-(5-(2,6-dioxopiperidin-3-yl)-3-fluoropyridin-2-yl)piperidin-4-yl)acetyl)piperidin-4-yl)-N-(1-((1S,2R)-2-fluorocyclopropyl)-2-oxo-1,2-dihydropyridin-3-yl)-6-isopropoxy-2H-indazole-5-carboxamide]	< 10
CC(C)Oc1cc2nn(C3CCN(C(=O)CC4(O)CCN(c5ncc(C6CCC(=O)NC6=O)cc5F)CC4)CC3)cc2cc1C(=O)Nc1cccn([C@H]2C[C@H]2F)c1=O (stereo partly drawn) [Example 152, 2-(1-(2-(1-(5-(2,6-dioxopiperidin-3-yl)-3-fluoropyridin-2-yl)-4-hydroxypiperidin-4-yl)acetyl)piperidin-4-yl)-N-(1-((S,2R)-2-fluorocyclopropyl)-2-oxo-1,2-dihydropyridin-3-yl)-6-isopropoxy-2H-indazole-5-carboxamide]	< 10
CC(C)Oc1cc2nn(C3CCN(C(=O)NC4CCN(c5ncc(C6CCC(=O)NC6=O)cc5F)CC4)CC3)cc2cc1C(=O)Nc1cccn([C@H]2C[C@H]2F)c1=O (stereo partly drawn) [Example 154, 2-(1-((1-(5-(2,6-dioxopiperidin-3-yl)-3-fluoropyridin-2-yl)piperidin-4-yl)carbamoyl)piperidin-4-yl)-N-(1-((1S,2R)-2-fluorocyclopropyl)-2-oxo-1,2-dihydropyridin-3-yl)-6-isopropoxy-2H-indazole-5-carboxamide]	< 10
CC(C)Oc1cc2nn(C3CCN(C(=O)N(C)C4CCN(c5ncc(C6CCC(=O)NC6=O)cc5F)CC4)CC3)cc2cc1C(=O)Nc1cccn([C@H]2C[C@H]2F)c1=O (stereo partly drawn) [Example 155, 2-(1-((1-(5-(2,6-dioxopiperidin-3-yl)-3-fluoropyridin-2-yl)piperidin-4-yl)(methyl)carbamoyl)piperidin-4-yl)-N-(1-((1S,2R)-2-fluorocyclopropyl)-2-oxo-1,2-dihydropyridin-3-yl)-6-isopropoxy-2H-indazole-5-carboxamide]	10 to 100
CC(C)Oc1cc2nn(C3CCN(C(=O)OC4CCN(c5ncc(C6CCC(=O)NC6=O)cc5F)CC4)CC3)cc2cc1C(=O)Nc1cccn([C@H]2C[C@H]2F)c1=O (stereo partly drawn) [Example 156, 1-(5-(2,6-dioxopiperidin-3-yl)-3-fluoropyridin-2-yl)piperidin-4-yl 4-(5-((1-((1S,2R)-2-fluorocyclopropyl)-2-oxo-1,2-dihydropyridin-3-yl)carbamoyl)-6-isopropoxy-2H-indazol-2-yl)piperidine-1-carboxylate]	10 to 100
CC(C)Oc1cc2nc(C3CCN(C(=O)NC4CCN(c5ccc(C6CCC(=O)NC6=O)cn5)CC4)CC3)cn2cc1C(=O)Nc1cnn2cccnc12 (stereo not drawn) [Example 157, 2-[1-[[1-[5-(2,6-dioxo-3-piperidyl)-2-pyridyl]-4-piperidyl]carbamoyl]-4-piperidyl]-7-isopropoxy-N-pyrazolo[1,5-a]pyrimidin-3-yl-imidazo[1,2-a]pyridine-6-carboxamide]	< 10
CC(C)Oc1cc2nc(C3CCN(C(=O)NC4CCN(c5ncc(C6CCC(=O)NC6=O)cc5F)CC4)CC3)cn2cc1C(=O)Nc1cnn2cccnc12 (stereo not drawn) [Example 158, 2-(1-((1-(5-(2,6-dioxopiperidin-3-yl)-3-fluoropyridin-2-yl)piperidin-4-yl)carbamoyl)piperidin-4-yl)-7-isopropoxy-N-(pyrazolo[1,5-a]pyrimidin-3-yl)imidazo[1,2-a]pyridine-6-carboxamide]	< 10
CC(C)Oc1cc2nc(C3CCN(C(=O)CC4CCN(c5ccc(C6CCC(=O)NC6=O)cn5)CC4)CC3)cn2cc1C(=O)Nc1cccn([C@H]2C[C@H]2F)c1=O (stereo partly drawn) [Example 160, 2-(1-(2-(1-(5-(2,6-dioxopiperidin-3-yl)pyridin-2-yl)piperidin-4-yl)acetyl)piperidin-4-yl)-N-(1-((1S,2R)-2-fluorocyclopropyl)-2-oxo-1,2-dihydropyridin-3-yl)-7-isopropoxyimidazo[1,2-a]pyridine-6-carboxamide]	< 10
CC(C)Oc1cc2nc(C3CCN(C(=O)CC4CCN(c5ncc(C6CCC(=O)NC6=O)cc5F)CC4)CC3)cn2cc1C(=O)Nc1cccn([C@H]2C[C@H]2F)c1=O (stereo partly drawn) [Example 161, 2-(1-(2-(1-(5-(2,6-dioxopiperidin-3-yl)-3-fluoropyridin-2-yl)piperidin-4-yl)acetyl)piperidin-4-yl)-N-(1-((1S,2R)-2-fluorocyclopropyl)-2-oxo-1,2-dihydropyridin-3-yl)-7-isopropoxyimidazo[1,2-a]pyridine-6-carboxamide]	10 to 100
CC(C)Oc1cc2nc(C3CCN(C(=O)CN4CCN(c5ccc(C6CCC(=O)NC6=O)cn5)CC4)CC3)cn2cc1C(=O)Nc1cccn([C@H]2C[C@H]2F)c1=O (stereo partly drawn) [Example 163, 2-(1-(2-(4-(5-(2,6-dioxopiperidin-3-yl)pyridin-2-yl)piperazin-1-yl)acetyl)piperidin-4-yl)-N-(1-((1S,2R)-2-fluorocyclopropyl)-2-oxo-1,2-dihydropyridin-3-yl)-7-isopropoxyimidazo[1,2-a]pyridine-6-carboxamide]	< 10
CC(C)Oc1cc2nc(C3CCN(C(=O)CCCNc4ccc(C5CCC(=O)NC5=O)cn4)CC3)cn2cc1C(=O)Nc1cccn([C@H]2C[C@H]2F)c1=O (stereo partly drawn) [Example 164, 2-(1-(4-((5-(2,6-dioxopiperidin-3-yl)pyridin-2-yl)amino)butanoyl)piperidin-4-yl)-N-(1-((1S,2R)-2-fluorocyclopropyl)-2-oxo-1,2-dihydropyridin-3-yl)-7-isopropoxyimidazo[1,2-a]pyridine-6-carboxamide]	10 to 100
CC(C)Oc1cc2nc(C3CCN(C(=O)CCCCNc4ccc(C5CCC(=O)NC5=O)cn4)CC3)cn2cc1C(=O)Nc1cccn([C@H]2C[C@H]2F)c1=O (stereo partly drawn) [Example 165, 2-(1-(5-((5-(2,6-dioxopiperidin-3-yl)pyridin-2-yl)amino)pentanoyl)piperidin-4-yl)-N-(1-((1S,2R)-2-fluorocyclopropyl)-2-oxo-1,2-dihydropyridin-3-yl)-7-isopropoxyimidazo[1,2-a]pyridine-6-carboxamide]	10 to 100
